Assay results taken from US9951063B2, “8-(piperazin-1-yl)-1,2,3,4-tetrahydro-isoquinoline derivatives” (IDORSIA PHARMACEUTICALS LTD, priority 2014, dated 2018).

target: human CXCR3A (Homo sapiens (Human), UniProt P49682); assay: FLIPR assay (inhibition of CXCL10-induced calcium signal); format: cell-based; conditions: engineered CHO-K1 cells expressing human CXCR3A coupled to Galpha(16); Fluo-4-AM; CXCL10 agonist 20 nM; mean values where determined several times
Experimental: The bioactivity of compounds is tested in a fluorometric imaging plate reader (FLIPR: Molecular Devices) using engineered CHO-K1 cells expressing the human CXCR3A (GenBank: AY242128) coupled to a G protein (Galpha(16)). Cells are plated the day prior to bioassay in F12 medium supplemented with 10% FBS and G418 and hygromycin antibiotics to maintain recombinant selection. At the day of bioassay, cells are washed and dye loaded for one hour with Fluo-4-AM (Invitrogen) in Hanks Balanced Salt Solution (Invitrogen), buffered with 20 mM Hepes at pH 7.4 and sodium bicarbonate (0.038%), containing 5 mM probenecid. This buffer, but lacking the dye and containing probenecid at a concentration of 2.5 mM, is also used for washing steps (wash buffer); or lacking both dye and probenecid but supplemented with 0.1% BSA for compound dilution steps (dilution buffer). Cells are washed free of excess dye and 60 microliter of wash buffer is added. Stock solutions of test compounds are made up at a concentration of 10 mM in DMSO, and serially diluted in dilution buffer to concentrations required for inhibition dose response curves. After a 10 minute incubation period at 37° C., 10 microliters of each compound dilution are transferred from a compound plate to the plate containing the recombinant cells in the FLIPR instrument according to the manufacturer's instructions. Following basal readings, 10 microliter CXCL10 agonist at a concentration of 20 nM (from Peprotech) is added, again using the FLIPR instrument. Changes in fluorescence are monitored before and after addition of the test compounds. Emission peak values above base level after CXCL10 addition are exported after base line subtraction.
The calculated IC50 values may fluctuate depending on the daily assay performance. Fluctuations of this kind are known to those skilled in the art. In the case where IC50 values have been determined several times for the same compound, mean values are given.

Sequence of human CXCR3A (P49682 whole entry): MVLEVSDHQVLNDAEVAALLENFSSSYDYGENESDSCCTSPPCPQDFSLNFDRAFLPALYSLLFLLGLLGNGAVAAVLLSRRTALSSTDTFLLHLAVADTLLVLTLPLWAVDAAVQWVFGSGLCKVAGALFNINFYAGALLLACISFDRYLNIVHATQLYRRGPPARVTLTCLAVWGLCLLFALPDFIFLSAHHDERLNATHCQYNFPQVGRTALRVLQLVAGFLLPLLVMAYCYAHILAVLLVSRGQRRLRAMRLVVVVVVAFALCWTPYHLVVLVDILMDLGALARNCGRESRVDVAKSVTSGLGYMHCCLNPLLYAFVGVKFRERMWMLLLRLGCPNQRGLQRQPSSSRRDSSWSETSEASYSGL

IC50 [nM]	Structure (SMILES)
7.27	C[C@@H]1CN(c2ccc(C(F)(F)F)c3c2CN(c2cnc(C4CC4)nc2)CC3)CCN1C(=O)Cn1ncc2cccnc21 [Example 47, 1-{(R)-4-[2-(2-Cyclopropyl-pyrimidin-5-yl)-5-trifluoromethyl-1,2,3,4-tetrahydro-isoquinolin-8-yl]-2-methyl-piperazin-1-yl}-2-pyrazolo[3,4-b]pyridin-1-yl-ethanone]
1.4	Cc1ccn(CC(=O)N2CCN(c3ccc(C(F)(F)F)c4c3CN(c3cnc(C5CC5)nc3)CC4)C[C@H]2C)n1 [Example 48, 1-{(R)-4-[2-(2-Cyclopropyl-pyrimidin-5-yl)-5-trifluoromethyl-1,2,3,4-tetrahydro-isoquinolin-8-yl]-2-methyl-piperazin-1-yl}-2-(3-methyl-pyrazol-1-yl)-ethanone]
2.26	Cc1nc(C)n(CC(=O)N2CCN(c3ccc(C(F)(F)F)c4c3CN(c3cnc(N(C)C)nc3)CC4)C[C@H]2C)n1 [Example 50, 1-{(R)-4-[2-(2-Dimethylamino-pyrimidin-5-yl)-5-trifluoromethyl-1,2,3,4-tetrahydro-isoquinolin-8-yl]-2-methyl-piperazin-1-yl}-2-(3,5-dimethyl-[1,2,4]triazol-1-yl)-ethanone]
4.1	Cc1ccnn1CC(=O)N1CCN(c2ccc(C(F)(F)F)c3c2CN(c2cnc(N(C)C)nc2)CC3)C[C@H]1C [Example 52, 1-{(R)-4-[2-(2-Dimethylamino-pyrimidin-5-yl)-5-trifluoromethyl-1,2,3,4-tetrahydro-isoquinolin-8-yl]-2-methyl-piperazin-1-yl}-2-(5-methyl-pyrazol-1-yl)-ethanone]
6.15	C[C@@H]1CN(c2ccc(C(F)(F)F)c3c2CN(c2cnc(N(C)C)nc2)CC3)CCN1C(=O)Cn1ncc2cccnc21 [Example 53, 1-{(R)-4-[2-(2-Dimethylamino-pyrimidin-5-yl)-5-trifluoromethyl-1,2,3,4-tetrahydro-isoquinolin-8-yl]-2-methyl-piperazin-1-yl}-2-pyrazolo[3,4-b]pyridin-1-yl-ethanone]
12.3	Cc1nc(C)n(CC(=O)N2CCN(c3ccc(C(F)(F)F)c4c3CN(c3cnc(C(F)(F)F)nc3)CC4)C[C@H]2C)n1 [Example 59, 2-(3,5-Dimethyl-[1,2,4]triazol-1-yl)-1-{(R)-2-methyl-4-[5-trifluoromethyl-2-(2-trifluoromethyl-pyrimidin-5-yl)-1,2,3,4-tetrahydro-isoquinolin-8-yl]-piperazin-1-yl}-ethanone]
668	C[C@@H]1CN(c2cccc3c2CN(C(=O)Cc2cccnc2)CC3)CCN1C(=O)Cn1cnc2cccnc21 [Example 63, 2-Imidazo[4,5-b]pyridin-3-yl-1-{(R)-2-methyl-4-[2-(2-pyridin-3-yl-acetyl)-1,2,3,4-tetrahydro-isoquinolin-8-yl]-piperazin-1-yl}-ethanone]
188	COc1ccc(CCC(=O)N2CCc3cccc(N4CCN(C(=O)Cn5cnc6cccnc65)[C@H](C)C4)c3C2)cc1 [Example 64, 1-{8-[(R)-4-(2-Imidazo[4,5-b]pyridin-3-yl-acetyl)-3-methyl-piperazin-1-yl]-3,4-dihydro-1H-isoquinolin-2-yl}-3-(4-methoxy-phenyl)-propan-1-one]
304	C[C@@H]1CN(c2cccc3c2CN(C(=O)Cn2ccc4ccccc42)CC3)CCN1C(=O)Cn1cnc2cccnc21 [Example 66, 2-Imidazo[4,5-b]pyridin-3-yl-1-{(R)-4-[2-(2-indol-1-yl-acetyl)-1,2,3,4-tetrahydro-isoquinolin-8-yl]-2-methyl-piperazin-1-yl}-ethanone]
614	CC(C)C(=O)N1CCc2cccc(N3CCN(C(=O)Cn4cnc5cccnc54)[C@H](C)C3)c2C1 [Example 67, 1-{8-[(R)-4-(2-Imidazo[4,5-b]pyridin-3-yl-acetyl)-3-methyl-piperazin-1-yl]-3,4-dihydro-1H-isoquinolin-2-yl}-2-methyl-propan-1-one]
599	COCC(=O)N1CCc2cccc(N3CCN(C(=O)Cn4cnc5cccnc54)[C@H](C)C3)c2C1 [Example 68, 2-Imidazo[4,5-b]pyridin-3-yl-1-{(R)-4-[2-(2-methoxy-acetyl)-1,2,3,4-tetrahydro-isoquinolin-8-yl]-2-methyl-piperazin-1-yl}-ethanone]
21.7	C[C@@H]1CN(c2cccc3c2CN(C(=O)C2CCCC2)CC3)CCN1C(=O)Cn1cnc2cccnc21 [Example 69, 1-[(R)-4-(2-Cyclopentanecarbonyl-1,2,3,4-tetrahydro-isoquinolin-8-yl)-2-methyl-piperazin-1-yl]-2-imidazo[4,5-b]pyridin-3-yl-ethanone]
55.5	C[C@@H]1CN(c2cccc3c2CN(C(=O)C2CCCCC2)CC3)CCN1C(=O)Cn1cnc2cccnc21 [Example 70, 1-[(R)-4-(2-Cyclohexanecarbonyl-1,2,3,4-tetrahydro-isoquinolin-8-yl)-2-methyl-piperazin-1-yl]-2-imidazo[4,5-b]pyridin-3-yl-ethanone]

The next lines start with the compound.

Structure (SMILES)	IC50 [nM]
Cc1ccnn1CC(=O)N1CCN(c2ccc(C(F)(F)F)c3c2CN(c2cnc(C4CC4)nc2)CC3)C[C@H]1C [Example 49, 1-{(R)-4-[2-(2-Cyclopropyl-pyrimidin-5-yl)-5-trifluoromethyl-1,2,3,4-tetrahydro-isoquinolin-8-yl]-2-methyl-piperazin-1-yl}-2-(5-methyl-pyrazol-1-yl)-ethanone]	3.56
Cc1ccn(CC(=O)N2CCN(c3ccc(C(F)(F)F)c4c3CN(c3cnc(N(C)C)nc3)CC4)C[C@H]2C)n1 [Example 51, 1-{(R)-4-[2-(2-Dimethylamino-pyrimidin-5-yl)-5-trifluoromethyl-1,2,3,4-tetrahydro-isoquinolin-8-yl]-2-methyl-piperazin-1-yl}-2-(3-methyl-pyrazol-1-yl)-ethanone]	4.93
CCOc1ncc(N2CCc3c(C(F)(F)F)ccc(N4CCN(C(=O)Cn5nc(C)nc5C)[C@H](C)C4)c3C2)cn1 [Example 54, 2-(3,5-Dimethyl-[1,2,4]triazol-1-yl)-1-{(R)-4-[2-(2-ethoxy-pyrimidin-5-yl)-5-trifluoromethyl-1,2,3,4-tetrahydro-isoquinolin-8-yl]-2-methyl-piperazin-1-yl}-ethanone]	6.22
CCOc1ncc(N2CCc3c(C(F)(F)F)ccc(N4CCN(C(=O)Cn5nc(C)cc5C)[C@H](C)C4)c3C2)cn1 [Example 55, 2-(3,5-Dimethyl-pyrazol-1-yl)-1-{(R)-4-[2-(2-ethoxy-pyrimidin-5-yl)-5-trifluoromethyl-1,2,3,4-tetrahydro-isoquinolin-8-yl]-2-methyl-piperazin-1-yl}-ethanone]	10
Cc1cc(C)n(CC(=O)N2CCN(c3ccc(C(F)(F)F)c4c3CN(c3ncc(-c5ccccc5)o3)CC4)C[C@H]2C)n1 [Example 56, 2-(3,5-Dimethyl-pyrazol-1-yl)-1-{(R)-2-methyl-4-[2-(5-phenyl-oxazol-2-yl)-5-trifluoromethyl-1,2,3,4-tetrahydro-isoquinolin-8-yl]-piperazin-1-yl}-ethanone]	8.14
Cc1cc(C)n(CC(=O)N2CCN(c3ccc(C(F)(F)F)c4c3CN(c3nc5ccccc5s3)CC4)C[C@H]2C)n1 [Example 57, 1-[(R)-4-(2-Benzothiazol-2-yl-5-trifluoromethyl-1,2,3,4-tetrahydro-isoquinolin-8-yl)-2-methyl-piperazin-1-yl]-2-(3,5-dimethyl-pyrazol-1-yl)-ethanone]	26.5
CCc1ncc(N2CCc3c(C(F)(F)F)ccc(N4CCN(C(=O)Cn5nc(C)nc5C)[C@H](C)C4)c3C2)cn1 [Example 58, 2-(3,5-Dimethyl-[1,2,4]triazol-1-yl)-1-{(R)-4-[2-(2-ethyl-pyrimidin-5-yl)-5-trifluoromethyl-1,2,3,4-tetrahydro-isoquinolin-8-yl]-2-methyl-piperazin-1-yl}-ethanone]	16.9
C[C@@H]1CN(c2cccc3c2CN(C(=O)OCc2ccccc2)CC3)CCN1C(=O)Cn1cnc2cccnc21 [Example 60, 8-[(R)-4-(2-Imidazo[4,5-b]pyridin-3-yl-acetyl)-3-methyl-piperazin-1-yl]-3,4-dihydro-1H-isoquinoline-2-carboxylic acid benzyl ester]	7.94
C[C@@H]1CN(c2cccc3c2CN(C(=O)C2CC2)CC3)CCN1C(=O)Cn1cnc2cccnc21 [Example 61, 1-[(R)-4-(2-Cyclopropanecarbonyl-1,2,3,4-tetrahydro-isoquinolin-8-yl)-2-methyl-piperazin-1-yl]-2-imidazo[4,5-b]pyridin-3-yl-ethanone]	223
COc1ccc(C(=O)N2CCc3cccc(N4CCN(C(=O)Cn5cnc6cccnc65)[C@H](C)C4)c3C2)cc1 [Example 62, 2-Imidazo[4,5-b]pyridin-3-yl-1-{(R)-4-[2-(4-methoxy-benzoyl)-1,2,3,4-tetrahydro-isoquinolin-8-yl]-2-methyl-piperazin-1-yl}-ethanone]	121
C[C@@H]1CN(c2cccc3c2CN(C(=O)c2cocn2)CC3)CCN1C(=O)Cn1cnc2cccnc21 [Example 65, 2-Imidazo[4,5-b]pyridin-3-yl-1-{(R)-2-methyl-4-[2-(oxazole-4-carbonyl)-1,2,3,4-tetrahydro-isoquinolin-8-yl]-piperazin-1-yl}-ethanone]	483
